# According to US6506339B1, “Method of sterilization” (Biomedical Design, Inc., priority 1997, dated 2003):
# What was measured:
# Type in all cases: cell-based
# [1] = tested on: Bacillus subtilis (niger) spores; experiment: Sterilization without isopropyl alcohol with porcine aortic root tissue (Example 4C); details: 40° C., 1.5×10^6 spores with root tissue, no isopropyl alcohol
# Procedure: An experiment similar to that of Example 4A is carried out using slightly higher concentrations of EDC and including porcine aortic root tissue. Bacillus subtilis (niger) spores at levels of 1.5×10^6 are inoculated for approximately 10 minutes in sterile cups each containing root tissue. Solutions (50 ml) of 50, 75 and 100 mM EDC in 10 mM TRIS, 0.85% NaCl, pH 6.5 are prewarmed to 40° C. and then rapidly added to the tissues in the cups. The cups containing the tissue are incubated at 40° C. for 6, 9, 12, 24 and 48 hours; then, the solutions are diluted and filtered in order to collect microorganisms. The valve tissue is washed for 20 minutes in a reciprocating shaker in the presence of peptone water containing Tween 80 in order to extract all spores of microorganisms from the tissue. The solutions from the shakers are filtered through the respective filters to which the original solutions were applied. The filters are rinsed with a 0.1% peptone water solution and incubated on TSA plates for up to 14 days. The plates are examined daily for growth.
# [2] = tested on: Bacillus subtilis (niger) spores; experiment: Sterilization without isopropyl alcohol and sulfo-NHS, cups with or without porcine valve tissue (Example 4B); details: 40° C., no isopropyl alcohol or sulfo-NHS
# Procedure: An experiment similar to that of Example 2 is carried out using EDC as a coupling agent in the absence of isopropyl alcohol and sulfo-NHS. Bacillus subtilis (niger) spores at levels of about 10^6 are inoculated in sterile cups, some of which contain cross-linked porcine aortic valve tissue, for approximately 10 minutes. Solutions (50 ml) of 25, 50 and 70 mM EDC in 10 mM TRIS, 0.85% NaCl, pH 6.5, are prewarmed to 40° C., respectively added to the cups, and incubated at 40° C. for 1 to 3 days. The solutions are then diluted and filtered in order to collect microorganisms. The valve tissue is washed for 20 minutes in a reciprocating shaker in the presence of peptone water containing polyethylenesorbitan monooleate (Tween 80) in order to extract all spores of microorganisms from the tissue; the peptone water solution is added to the corresponding filter. Next, the filters are rinsed with a 0.1% peptone water solution to eliminate any residual EDC and incubated on TSA plates for 14 days. The plates are examined every day for growth, counting the colony forming units (CFUs).
# [3] = tested on: spores of Bacillus subtilis; experiment: Two sequential spore inoculations on cross-linked porcine valves (Example 5); details: 25 mM EDC, 20% isopropyl alcohol, 40° C.
# Procedure: An experiment was also designed to test the bactericidal activity of the EDC treatment using two sequential inoculations of at least 1×10^6 spores of Bacillus subtilis per sample. In the first step, 1.43×10^6 spores (Log10=6.2) were inoculated in triplicate for 10 minutes onto 45 porcine valves which had been cross-linked using a method as described in the above-mentioned patent and patent application. Solutions of 25 mM EDC in 10 mM HEPES, 0.85% NaCl, 20% isopropyl alcohol, at pH 6.5 were poured into the cups containing the valve samples. After 2, 4, 6, and 8 hours of incubation at 40° C., the total surviving spores from 12 samples (solution plus tissue) were counted. After 8 hours of incubation, an additional 1.2×10^6 (Log10=6.1) spores were added to the remaining 33 samples. Summarizing, these remaining 33 samples were thus inoculated at t=0 with 1.43×10^6 spores and at t=8 with 1.2×10^6 spores. After various durations of incubation (see Table C for details), the surviving spores in solution and on the valve tissue were removed by filtering and incubated on TSA plates as described above. The positive and negative controls were determined to be valid for the test.
# [4] = tested on: Bacillus subtilis (niger) spores; experiment: Sterilization without isopropyl alcohol at 55° C. (Example 4D)
# Procedure: An experiment similar to that of Example 4A was carried out using a higher temperature of 55°. Bacillus subtilis (niger) spores at levels of 1.32×10^6 (Log10=6.12) were inoculated for approximately 10 minutes in sterile cups. Solutions (50 ml) of 5 and 50 mM EDC in 10 mM TRIS, 0.85% NaCl, pH 6.5 were prewarmed to 55° C. and then rapidly added to the cups. The cups were incubated at 55° C. for 1 and 10 hours; the solutions were then diluted and filtered in order to collect microorganisms. The filters were rinsed with a 0.1% peptone water solution and incubated on TSA plates for up to 14 days. The plates are examined daily for growth. […] This can be extrapolated to achieving complete kill in 2-3 hours. […] Although this cannot be extrapolated to complete kill over a greater length of time because of the low level of EDC remaining after 10 hours, it is expected that sterilization treatment using a concentration at least about 15 mM EDC at 55° C. for 10 hours would result in complete kill.
# [5] = 28 to 56 hours, rechallenge with 1.2×10^6 spores at 8 hours, mean of three samples
# [6] = 2 hours, inoculum 1.43×10^6, mean of three samples
# [7] = 4 hours, inoculum 1.43×10^6, mean of three samples
# [8] = 6 hours, inoculum 1.43×10^6, mean of three samples
# [9] = 8 hours, inoculum 1.43×10^6, mean of three samples
# [10] = 11 hours, rechallenge with 1.2×10^6 spores at 8 hours, mean of three samples
# [11] = 14 hours, rechallenge with 1.2×10^6 spores at 8 hours, mean of three samples
# [12] = 20 hours, rechallenge with 1.2×10^6 spores at 8 hours, mean of three samples
# [13] = 24 hours, rechallenge with 1.2×10^6 spores at 8 hours, mean of three samples
compound,measurement,setting,value
"CCN=C=NCCCN(C)C.Cl [EDC, 1-ethyl-3(3-dimethylaminopropyl)carbodiimide hydrochloride]",inactivation of spores,"[1]; 50 mM EDC, 6 hours",only partial kill
same,inactivation of spores,"[1]; 50 mM EDC, 9 hours",complete inactivation of the spores
same,inactivation of spores,"[1]; 75 mM EDC, 6 hours",effectively inactivates these spores
same,inactivation of spores,"[1]; 75 mM EDC, 9 hours",complete inactivation of the spores
same,inactivation of spores,"[1]; 100 mM EDC, 6 hours",effectively inactivates these spores
same,inactivation of spores,"[1]; 100 mM EDC, 9 hours",complete inactivation of the spores
same,time within which effective sterilization (inactivation of 1×10^6 spores) occurs,[2]; 25 mM EDC,≤ 24 hours
same,time within which effective sterilization (inactivation of 1×10^6 spores) occurs,[2]; 50 mM EDC,≤ 24 hours
same,time within which effective sterilization (inactivation of 1×10^6 spores) occurs,[2]; 70 mM EDC,≤ 24 hours
same,LOG REDUCTION,[3]; [5],6.1
same,Total Survivors # CFUs,[3]; [5],0 CFUs
same,Total Survivors Log 10,[3]; [5],0 Log 10
same,LOG REDUCTION,[3]; [6],4.5
same,Total Survivors # CFUs,[3]; [6],58 CFUs
same,Total Survivors Log 10,[3]; [6],1.7 Log 10
same,LOG REDUCTION,[3]; [7],5.6
same,Total Survivors # CFUs,[3]; [7],4 CFUs
same,Total Survivors Log 10,[3]; [7],0.5 Log 10
same,LOG REDUCTION,[3]; [8],6.2
same,Total Survivors # CFUs,[3]; [8],0 CFUs
same,Total Survivors Log 10,[3]; [8],0 Log 10
same,LOG REDUCTION,[3]; [9],6.2
same,Total Survivors # CFUs,[3]; [9],0 CFUs
same,Total Survivors Log 10,[3]; [9],0 Log 10
same,LOG REDUCTION,[3]; [10],3.7
same,Total Survivors # CFUs,[3]; [10],300 CFUs
same,Total Survivors Log 10,[3]; [10],2.5 Log 10
same,LOG REDUCTION,[3]; [11],6.1
same,Total Survivors # CFUs,[3]; [11],0 CFUs
same,Total Survivors Log 10,[3]; [11],0 Log 10
same,LOG REDUCTION,[3]; [12],6.1
same,Total Survivors # CFUs,[3]; [12],0 CFUs
same,Total Survivors Log 10,[3]; [12],0 Log 10
same,LOG REDUCTION,[3]; [13],6.1
same,Total Survivors # CFUs,[3]; [13],0 CFUs
same,Total Survivors Log 10,[3]; [13],0 Log 10
same,log reduction,"[4]; 5 mM EDC, 1 hour, 1.32×10^6 spores, no isopropyl alcohol",0.512
same,log reduction,"[4]; 5 mM EDC, 10 hours, 1.32×10^6 spores, no isopropyl alcohol",4.46
same,inactivation of spores,"[4]; 50 mM EDC, 10 hours, 1.32×10^6 spores, no isopropyl alcohol",effectively inactivated these spores
same,time to complete kill (extrapolated),"[4]; 50 mM EDC, extrapolated from the one-hour log reduction",2 to 3 h
same,log reduction,"[4]; 50 mM EDC, one hour, 1.32×10^6 spores, no isopropyl alcohol",3.04
